Laboratory results published in ChEMBL document CHEMBL1201862, “PubChem BioAssay data set” (2004).
Activity calls are given as the source filed them.

Key:
[1] = biological target: Major prion protein (Homo sapiens, UniProt P04156); type: functional, cell-based
[2] = cells
[3] = biological target: T1, COUP transcription factor 2 (Homo sapiens, UniProt P24468); assay: Luminescence-based cell-based high throughput dose response assay to identify inhibitors of COUP-TFII (NR2F2).; type: functional;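 note: HEK293 cells transiently cotransfected with COUP-TFII expression vector and reporter; luciferase reporter luminescence driven by COUP-TFII from the pX2-168 reporter plasmid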
T1 sequence (P24468 whole entry): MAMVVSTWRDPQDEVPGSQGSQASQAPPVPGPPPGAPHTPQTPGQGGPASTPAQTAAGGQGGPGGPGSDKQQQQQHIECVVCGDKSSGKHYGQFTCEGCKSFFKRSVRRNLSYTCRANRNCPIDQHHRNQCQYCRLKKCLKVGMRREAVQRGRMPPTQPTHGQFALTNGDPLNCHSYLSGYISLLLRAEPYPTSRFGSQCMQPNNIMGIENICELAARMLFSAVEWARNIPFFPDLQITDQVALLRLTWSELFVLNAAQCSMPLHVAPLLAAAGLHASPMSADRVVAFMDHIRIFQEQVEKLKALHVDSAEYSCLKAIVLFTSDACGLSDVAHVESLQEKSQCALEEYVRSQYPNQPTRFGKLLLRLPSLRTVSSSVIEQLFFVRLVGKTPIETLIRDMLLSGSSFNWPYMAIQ

[4] = biological target: Prothrombin (Homo sapiens, UniProt P00734); assay: Thrombin 1536 HTS Dose Response Confirmation. [Related pubchem assays: 1046 (Thrombin 1536 HTS; hits were confirmed in this assay)]; type: functional
[5] = biological target: T2, DNA repair and recombination protein RAD54-like (Homo sapiens, UniProt Q92698); assay: RAD54 Holliday junction migration blockers – biochemical, fluorescence, cherry-picked samples, dose series, confirmation (AID 651657); type: functional
T2 sequence (Q92698 whole entry): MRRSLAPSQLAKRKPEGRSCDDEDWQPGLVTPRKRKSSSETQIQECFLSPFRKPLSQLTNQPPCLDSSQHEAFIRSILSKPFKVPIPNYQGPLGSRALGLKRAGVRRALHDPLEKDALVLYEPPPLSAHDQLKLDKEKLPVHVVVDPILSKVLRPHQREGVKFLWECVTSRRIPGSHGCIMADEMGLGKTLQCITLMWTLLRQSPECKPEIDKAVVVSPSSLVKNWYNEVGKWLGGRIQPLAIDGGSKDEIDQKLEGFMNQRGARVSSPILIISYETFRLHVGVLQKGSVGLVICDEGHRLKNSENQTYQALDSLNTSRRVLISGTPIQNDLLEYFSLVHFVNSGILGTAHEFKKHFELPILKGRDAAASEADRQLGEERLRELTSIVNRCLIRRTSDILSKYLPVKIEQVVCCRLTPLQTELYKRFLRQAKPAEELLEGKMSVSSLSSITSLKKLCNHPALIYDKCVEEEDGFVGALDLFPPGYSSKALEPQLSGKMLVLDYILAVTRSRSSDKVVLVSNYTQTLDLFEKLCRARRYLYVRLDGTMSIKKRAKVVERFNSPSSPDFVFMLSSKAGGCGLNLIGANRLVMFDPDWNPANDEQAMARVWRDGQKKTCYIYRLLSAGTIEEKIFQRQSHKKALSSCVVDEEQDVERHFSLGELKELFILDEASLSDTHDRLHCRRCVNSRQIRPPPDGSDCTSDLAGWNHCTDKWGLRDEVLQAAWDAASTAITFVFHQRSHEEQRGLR

[6] = biological target: T3, Rac GTPase-activating protein 1 (Homo sapiens, UniProt Q9H0H5); assay: blockers of MgcRacGAP-driven Rac1 GTP hydrolysis – biochemical, ADP Hunter fluorescence, primary and confirmatory, confirmation (AID 624330); type: functional
T3 sequence (Q9H0H5 whole entry): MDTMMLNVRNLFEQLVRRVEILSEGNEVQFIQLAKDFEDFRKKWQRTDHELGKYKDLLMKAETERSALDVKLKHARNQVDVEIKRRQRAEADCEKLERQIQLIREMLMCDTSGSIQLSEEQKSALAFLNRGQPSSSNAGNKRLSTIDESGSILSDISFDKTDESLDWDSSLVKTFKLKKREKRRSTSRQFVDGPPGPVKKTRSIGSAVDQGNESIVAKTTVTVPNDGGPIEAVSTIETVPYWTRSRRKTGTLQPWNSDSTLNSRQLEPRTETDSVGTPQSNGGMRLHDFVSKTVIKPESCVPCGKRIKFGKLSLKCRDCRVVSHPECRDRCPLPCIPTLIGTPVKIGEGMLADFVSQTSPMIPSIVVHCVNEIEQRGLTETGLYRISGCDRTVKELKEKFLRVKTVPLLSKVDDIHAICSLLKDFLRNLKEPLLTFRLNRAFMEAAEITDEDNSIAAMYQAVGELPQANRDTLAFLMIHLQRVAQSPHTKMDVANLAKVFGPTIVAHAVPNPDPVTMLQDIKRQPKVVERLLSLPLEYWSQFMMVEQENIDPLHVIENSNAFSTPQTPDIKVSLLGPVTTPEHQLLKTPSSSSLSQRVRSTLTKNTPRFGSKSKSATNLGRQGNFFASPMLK

[7] = biological target: T4, DNA repair protein RAD52 homolog (Homo sapiens, UniProt P43351); type: functional, biochemical
T4 sequence (P43351 whole entry): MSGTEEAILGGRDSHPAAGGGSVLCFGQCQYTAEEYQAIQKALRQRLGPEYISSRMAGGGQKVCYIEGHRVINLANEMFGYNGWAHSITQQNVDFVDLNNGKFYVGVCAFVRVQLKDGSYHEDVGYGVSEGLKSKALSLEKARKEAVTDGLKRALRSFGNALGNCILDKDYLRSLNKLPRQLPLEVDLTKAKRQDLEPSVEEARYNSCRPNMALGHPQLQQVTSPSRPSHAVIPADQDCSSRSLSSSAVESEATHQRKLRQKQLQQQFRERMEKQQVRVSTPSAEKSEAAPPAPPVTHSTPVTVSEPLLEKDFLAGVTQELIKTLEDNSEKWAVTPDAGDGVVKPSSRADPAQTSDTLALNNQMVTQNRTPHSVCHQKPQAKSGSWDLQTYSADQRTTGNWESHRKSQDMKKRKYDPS

[8] = biological target: T5, Heat shock factor protein 1 (Mus musculus, UniProt P38532); assay: decrease of HSF1-responsive luciferase luminescence – cell-based, NIH3T3, dose retest, confirmation (AID 2382); type: functional;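 note: NIH3T3 fibroblasts with HSF1-driven luciferase reporter stressed by proteasome inhibitor MG132; luminescence from HSF1-driven luciferase expression after 8 hours of MG132 stress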
T5 sequence (P38532 whole entry): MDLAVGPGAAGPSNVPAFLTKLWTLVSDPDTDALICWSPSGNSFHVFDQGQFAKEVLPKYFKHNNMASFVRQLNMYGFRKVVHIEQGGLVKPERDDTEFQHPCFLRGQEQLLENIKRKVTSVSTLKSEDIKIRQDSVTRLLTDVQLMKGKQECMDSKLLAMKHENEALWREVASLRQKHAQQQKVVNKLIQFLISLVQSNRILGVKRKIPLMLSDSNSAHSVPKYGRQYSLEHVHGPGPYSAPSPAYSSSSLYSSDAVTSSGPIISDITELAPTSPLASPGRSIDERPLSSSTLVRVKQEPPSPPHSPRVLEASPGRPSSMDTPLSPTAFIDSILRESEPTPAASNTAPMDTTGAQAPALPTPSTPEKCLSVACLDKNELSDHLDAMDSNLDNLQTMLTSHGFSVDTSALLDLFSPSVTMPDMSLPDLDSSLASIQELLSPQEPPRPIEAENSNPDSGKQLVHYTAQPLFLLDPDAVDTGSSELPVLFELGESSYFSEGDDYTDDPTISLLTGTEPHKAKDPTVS

[9] = biological target: Paired box protein Pax-8 (Homo sapiens, UniProt Q06710); assay: PAX8 transcriptional activity inhibition in RMG-I – RMG-I cells, luciferase, cherry-pick, dose response (AID 687027); type: functional, cell-based;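 note: luciferase reporter driven by Pax8 target thyroperoxidase promoter measured by SteadyGlo luminescence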
[10] = biological target: T6, Caspase-6 (Homo sapiens, UniProt P55212); assay: inhibition of CASP6 peptide cleavage – biochemical, VEID-R110 fluorescence, cherry-pick, dose response (AID 720632)
T6 sequence (P55212 whole entry): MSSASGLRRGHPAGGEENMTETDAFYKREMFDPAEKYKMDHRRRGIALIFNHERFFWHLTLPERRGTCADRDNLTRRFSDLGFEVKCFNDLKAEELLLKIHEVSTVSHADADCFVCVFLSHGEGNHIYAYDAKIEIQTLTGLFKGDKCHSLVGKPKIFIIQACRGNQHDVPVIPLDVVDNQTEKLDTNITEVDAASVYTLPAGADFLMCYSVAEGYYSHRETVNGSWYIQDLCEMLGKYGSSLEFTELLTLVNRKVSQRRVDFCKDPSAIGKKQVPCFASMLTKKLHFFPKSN

[11] = general cell-killing toxicity readout – plate reader, dry powder samples, cytotoxicity control for PAX8 inhibitor project, dose response (AID 743021); type: functional, cell-based
[12] = reduction of Shn3 3'UTR-driven luciferase in osteoblasts – cell-based, Clone20 osteoblasts, firefly luciferase, cherry-picked, dose response (AID 624132); type: functional;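 note: firefly luciferase luminescence from reporter carrying the Shn3 3'UTR in osteoblasts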
[13] = loss of viability in HepG2 cells – cell-based, CellTiter-Glo, cherry-picked, cytotoxicity control for Shn3 inhibitor project, dose response (AID 624134); type: functional
[14] = non-specific 3'UTR reporter inhibition in Clone20-Shn3RL – cell-based, Renilla luciferase, cherry-picked, counter-screen for Shn3 inhibitor project, dose response (AID 624133); type: functional
[15] = viability loss in HeLa cells – cytotoxicity control for MgcRacGAP inhibitor project, dose response (AID 624300); type: functional
[16] = biological target: T7, Histone-lysine N-methyltransferase NSD2 (Homo sapiens, UniProt O96028); type: biochemical
T7 sequence (O96028 whole entry): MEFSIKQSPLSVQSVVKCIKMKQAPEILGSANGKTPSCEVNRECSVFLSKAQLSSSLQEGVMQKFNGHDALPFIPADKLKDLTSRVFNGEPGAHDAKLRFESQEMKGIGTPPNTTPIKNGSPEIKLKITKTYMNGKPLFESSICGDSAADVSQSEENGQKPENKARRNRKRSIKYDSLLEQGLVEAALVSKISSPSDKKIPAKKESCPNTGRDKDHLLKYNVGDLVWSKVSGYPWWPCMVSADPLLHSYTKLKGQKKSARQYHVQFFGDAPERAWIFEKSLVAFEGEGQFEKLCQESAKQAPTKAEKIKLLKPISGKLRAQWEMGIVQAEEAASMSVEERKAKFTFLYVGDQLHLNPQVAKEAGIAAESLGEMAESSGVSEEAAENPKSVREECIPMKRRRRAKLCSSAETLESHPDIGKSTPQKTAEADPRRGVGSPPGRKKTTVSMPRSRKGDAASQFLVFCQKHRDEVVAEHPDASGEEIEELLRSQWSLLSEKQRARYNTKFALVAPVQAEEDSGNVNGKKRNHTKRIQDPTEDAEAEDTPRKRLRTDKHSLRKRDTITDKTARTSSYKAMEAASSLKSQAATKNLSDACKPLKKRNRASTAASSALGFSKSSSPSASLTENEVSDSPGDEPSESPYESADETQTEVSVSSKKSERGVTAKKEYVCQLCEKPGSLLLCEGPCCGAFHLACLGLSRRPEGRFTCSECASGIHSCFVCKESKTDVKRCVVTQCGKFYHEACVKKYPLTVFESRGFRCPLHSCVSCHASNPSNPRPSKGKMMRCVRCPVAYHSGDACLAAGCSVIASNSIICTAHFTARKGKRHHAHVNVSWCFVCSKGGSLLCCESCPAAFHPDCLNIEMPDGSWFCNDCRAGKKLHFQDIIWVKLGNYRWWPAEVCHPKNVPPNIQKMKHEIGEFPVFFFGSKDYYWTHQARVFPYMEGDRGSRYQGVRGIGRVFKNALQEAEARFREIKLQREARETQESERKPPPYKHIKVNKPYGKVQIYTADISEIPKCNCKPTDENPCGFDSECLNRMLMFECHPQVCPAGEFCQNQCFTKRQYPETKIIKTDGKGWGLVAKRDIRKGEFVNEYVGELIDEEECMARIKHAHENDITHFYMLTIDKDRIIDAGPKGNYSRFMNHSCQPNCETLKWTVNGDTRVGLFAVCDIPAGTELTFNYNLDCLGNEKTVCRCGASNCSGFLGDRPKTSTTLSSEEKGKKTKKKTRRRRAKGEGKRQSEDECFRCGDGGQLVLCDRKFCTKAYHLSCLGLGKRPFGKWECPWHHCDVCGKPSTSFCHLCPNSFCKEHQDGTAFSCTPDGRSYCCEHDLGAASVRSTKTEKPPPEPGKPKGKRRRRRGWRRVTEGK

[17] = biological target: Genome polyprotein (dengue virus type 2, UniProt P29990); assay: flavivirus cap methylation enzyme inhibition – biochemical, confirmation dose response, primary screen (AID 588689); type: functional

O=C(COC(=O)CSc1ccc2ccccc2c1Br)NC1CC1
IC50 [1]: 4.72 µM (active) | IC50 [2]: > 138 µM (inactive)

CCOCCCN=C(S)N1CCN(c2nc(-c3ccc(F)cc3)cs2)CC1
IC50 [3]: 8.63 µM (active)

CN(C)CCCNc1ncnc2sc(-c3ccccc3)cc12
IC50 [4]: > 50 µM (not active) | AC50 [5]: 17.4 µM (active) | IC50 [6]: 29.9 µM (active) | AC50 [7]: 14.6 µM (active)

CC(C)(C)c1ccc(-c2nnc3sc(-c4ccccn4)nn23)cc1
EC50 [8]: 0.871 µM (active) | IC50 [3]: > 85.4 µM (inactive)

Cc1cc2cccc(C)c2nc1SCC(=O)NNC(=O)c1ccco1
IC50 [1]: 7.04 µM (active) | IC50 [2]: > 138 µM (inactive)

Cn1c(=S)sc2ccc3ccccc3c21
IC50 [1]: 6.25 µM (active) | IC50 [2]: 138 µM (inactive)

Cc1cc(=O)n2c3c(c4c(cc13)c(CN(C)C)cc(=O)n4C)OC2
AC50 [9]: 16.8 µM (active) | AC50 [10]: 4.06 µM (active) | AC50 [11]: 50 µM (active)

CCN(CC)CC(C)(C)C(=O)/C=C/c1ccc(/C=C/C(=O)C(C)(C)CN(CC)CC)cc1
AC50 [12]: 0.468 µM (active) | AC50 [13]: 5.07 µM (active) | AC50 [14]: 1.78 µM (active) | CC50 [15]: 65.5 µM (active) | IC50 [6]: 158 µM (active) | AC50 [9]: 2.2 µM (active) | AC50 [16]: > 20 µM (inactive)

CC1=C/C(=C(\c2cc(C)c(O)c(Br)c2)c2ccccc2S(=O)(=O)O)C=C(Br)C1=O
IC50 [17]: 53.2 µM (active) | CC50 [15]: 100 µM (active) | IC50 [6]: 79.4 µM (active) | AC50 [16]: 14.6 µM (active)

CCC(OC(=O)c1ccc(S(C)(=O)=O)c([N+](=O)[O-])c1)C(=O)NC1C2CC3CC(C2)CC1C3 (configuration not stated)
AC50 [12]: 1.66 µM (active) | AC50 [13]: 7.27 µM (active) | AC50 [14]: 4.49 µM (active) | AC50 [9]: 8.07 µM (active) | AC50 [11]: 31.1 µM (active)
